According to patent US9468212B2, “Antifungal compositions” (DSM IP ASSETS B.V., priority 2013, dated 2016):
“And” between values parts separate entries of the source, which are not always exact repeats. Equal values may be shown once.

Key:
Penicillium italicum = experiment: Treatment of oranges: wounded, inoculated with Penicillium italicum, wound treated with antifungal composition (Examples 7-9); format: in vivo; details: 500 ppm natamycin, 400 ppm fenpiclonil or both, oranges, 20° C.
Protocol: The expected antifungal activity (E in %) of the combined antifungal composition comprising both active ingredients was calculated according to the Colby equation (Colby, 1967): E=X+Y−[(X·Y)/100] wherein X and Y are the observed antifungal activities (in %) of the individual active ingredients X and Y, respectively.
Eight fresh, organic oranges were used per treatment. Each orange was soaked in a 180 ppm hypochlorite solution for 10 minutes, then rinsed thoroughly with fresh tap water and dried. The peel of each disinfected orange was wounded once using a cork borer according to the method described by de Lapeyre de Bellaire and Dubois (1987). Subsequently, each wound was inoculated with 10 μl of a Penicillium italicum suspension containing 5×10^5 of spores/ml. After incubation for 3 hours at 20° C., each wound and the orange peel area of 1 cm around the wound was treated with in total […] of a freshly prepared aqueous antifungal composition comprising either 500 ppm natamycin (DSM Food Specialties, Delft, The Netherlands), 300 ppm fludioxonil or both. Each antifungal composition also comprised 3.2% (w/w) beeswax, 0.8% (w/w) glycerol, 0.7% (w/w) polyoxyethylene sorbitan monostearate (Tween 60), 0.1% (w/w) polyoxyethylene sorbitan monooleate (Tween 80), 0.05% (w/w) methylhydroxyethyl-cellulose (MHEC), 0.03% (w/w) anti-foaming agent, 0.02% (w/w) xanthan gum, 0.02% (w/w) citric acid, 0.01% (w/w) lactic acid and 0.01% potassium sorbate. A composition without natamycin or fludioxonil was used as control.
The treated oranges were incubated in a closed box in the dark at 20° C. and assessed on mould growth during a 27-day incubation period.
(§1) The experiment was conducted as described in Example 7, except for the fact that each wounded and inoculated orange was treated with 150 μl of a freshly prepared aqueous antifungal composition comprising either 250 ppm natamycin (DSM Food Specialties, Delft, The Netherlands), 100 ppm fludioxonil or both. During incubation, the treated oranges were assessed on mould growth according to the two methods described in Example 5.
as §1, with “500” for “250”, “400” for “100”, “fenpiclonil” for “fludioxonil”, “a 23-day incubation period,” for “incubation,”

Botrytis cinerea = experiment: Treatment of sweet peppers: wounded, inoculated with Botrytis cinerea, wound treated with antifungal composition (Example 10); format: in vivo; details: 400 ppm natamycin, 600 ppm fenpiclonil or both, 20° C.
Protocol: Ten fresh, organic sweet peppers were used per treatment. The peel of each sweet pepper was wounded once using a cork borer according to the method described by de Lapeyre de Bellaire and Dubois (1987). Subsequently, each wound was inoculated with 10 μl of a Botrytis cinerea suspension containing 1×10^5 of spores/ml. After incubation for 3 hours at 20° C., each wound and the skin area of 0.5 cm around the wound was treated with in total 75 μl of a freshly prepared aqueous antifungal composition comprising either 400 ppm natamycin (DSM Food Specialties, Delft, The Netherlands), 600 ppm fenpiclonil or both. Each antifungal composition also comprised 3.2% (w/w) beeswax, 0.8% (w/w) glycerol, 0.7% (w/w) polyoxyethylene sorbitan monostearate (Tween 60), 0.2% (w/w) polyoxyethylene sorbitan monooleate (Tween 80), 0.05% (w/w) methylhydroxyethyl-cellulose (MHEC), 0.03% (w/w) anti-foaming agent, 0.02% (w/w) xanthan gum, 0.02% (w/w) citric acid, 0.01% (w/w) lactic acid and 0.01% potassium sorbate. A composition without natamycin or fenpiclonil was used as control.
The treated sweet peppers were incubated in a closed box in the dark at 20° C. and assessed on mould growth during incubation. The antifungal activity (in %) of the individual and combined active ingredients was determined by calculating the reduction in mould growth observed on the sweet peppers treated with the antifungal composition in comparison to the mould growth on the sweet peppers treated with the control composition according to the Colby method (Colby, 1967) as described in Example 5.

N#Cc1c[nH]cc1-c1cccc(Cl)c1Cl [Fenpiclonil, fenpiclonil]
Observed antifungal activity O (%) (Penicillium italicum; 22-23 days): 0%
Observed antifungal activity O (%) (Penicillium italicum; 12 days): 78%
Observed antifungal activity O (%) (Penicillium italicum; 13 days): 70%
Observed antifungal activity O (%) (Penicillium italicum; 14 days): 66%
Observed antifungal activity O (%) (Penicillium italicum; 15 days): 59%
Observed antifungal activity O (%) (Penicillium italicum; 16 days): 47%
Observed antifungal activity O (%) (Penicillium italicum; 18 days): 28%
Observed antifungal activity O (%) (Penicillium italicum; 19 days): 17%
Observed antifungal activity O (%) (Penicillium italicum; 20 days): 6%
Observed antifungal activity O (%) (Penicillium italicum; 21 days): 3%
Number of moulded oranges/total number of 8 oranges (Penicillium italicum; Day 14-15): 6 and 6/8
Number of moulded oranges/total number of 8 oranges (Penicillium italicum; Day 16): 8 and 8/8
Number of moulded oranges/total number of 8 oranges (Penicillium italicum; Day 18): 8 and 8/8
Number of moulded oranges/total number of 8 oranges (Penicillium italicum; Day 19-23): 8 and 8/8
Observed antifungal activity O (%) (Botrytis cinerea; 47 days): 0%
Observed antifungal activity O (%) (Botrytis cinerea; 48 days): 0%
Observed antifungal activity O (%) (Botrytis cinerea; 49 days): 0%
Observed antifungal activity O (%) (Botrytis cinerea; 50 days): 0%
